Measured values from patent publication US9023864B2, “Indole derivatives as CRTH2 receptor antagonists” (Merck Sharp & Dohme Corp., priority 2009, dated 2015).

Biological target: T1, hCRTH2 (Homo sapiens, UniProt Q9Y5Y4)
T1 construct: expressed in transfected cells; host or cells: HEK cell line expressing hCRTH2 (HEK-hCRTH2); membranes
T1 sequence (Q9Y5Y4 1-395): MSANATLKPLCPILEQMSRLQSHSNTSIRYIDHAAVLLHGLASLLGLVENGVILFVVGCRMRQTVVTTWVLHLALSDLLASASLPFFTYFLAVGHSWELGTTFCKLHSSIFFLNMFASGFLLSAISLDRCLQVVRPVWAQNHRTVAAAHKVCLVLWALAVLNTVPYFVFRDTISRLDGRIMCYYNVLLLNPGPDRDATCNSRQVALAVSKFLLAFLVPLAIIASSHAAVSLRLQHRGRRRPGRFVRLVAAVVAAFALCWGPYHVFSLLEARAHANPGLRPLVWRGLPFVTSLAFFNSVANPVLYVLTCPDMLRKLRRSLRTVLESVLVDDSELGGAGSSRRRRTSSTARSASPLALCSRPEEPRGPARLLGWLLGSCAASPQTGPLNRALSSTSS
Assay: Radioligand binding assay ([3H]PGD2 competition, membranes from HEK-hCRTH2 cell line)
Settings: 0.7 nM [3H]PGD2, membrane protein from HEK-hCRTH2 cell line, 60 min at room temperature; values given as ranges
Protocol: Radioligand Binding Assay.
Radioligand binding assays were performed at room temperature in 10 mM HEPES/KOH pH 7.4, 1 mM EDTA containing 10 mM MnCl2 and 0.7 nM [^3H]PGD2 (NEN, 171 Ci mmol^−1), in a final volume of 0.2 ml. Competing ligands were diluted in dimethylsulfoxide (Me2SO) that was kept constant at 1% (v/v) of the final incubation volume. The reaction was initiated by the addition of 8-20 μg of membrane protein prepared from a HEK-hCRTH2 cell line. Total and non-specific binding were determined in the absence and the presence of 10 μM PGD2, respectively. Under these conditions, specific binding (total minus non-specific) of the radioligand to the receptor reached equilibrium within 50 min and was stable up to 180 min. The reaction was routinely conducted for 60 min at room temperature and terminated by rapid filtration through prewetted Unifilters GF/C (Packard), using a Tomtec MachIII semi-automated harvester (for HEK-hCRTH2). The filters were then washed with 4 ml of the same buffer and residual radioligand bound to the filter was determined by liquid scintillation counting following equilibration in 25 μl Ultima Gold F™ (Unifilter) (Packard). The Ki (in nM) values for representative compounds of the present invention are as follows: ≦5: Examples 3.1, 5.1, 6.1, 7.1, 8.1/8A, 9.1, 26, 27.1, 28.1, 29.1, 30, 31.1, 31.3, 32.1, 32.4, 33.1, 34.1, 36.1, 38.1, 39, 40, 41; >5 and ≦10: Examples, 4, 5.3, 29.2; >10 and ≦50: Examples 1, 10, 14, 21, 22, 25, 31.4, 32.3, 35, 36.2, 37; >50 and ≦100: Examples 2, 5.4, 6.2, 27.2, 28.2; >100: Examples 3.2, 5.2, 7.2, 8.2, 9.2, 11, 12, 13, 15, 16, 17, 18, 19, 20, 23, 24, 31.2, 32.2, 33.2, 34.2, 38.2.

SMILES | Ki [nM]
O=C(O)Cc1c2n(c3ccccc13)CC(n1nncc1COc1c(Cl)cccc1Cl)CC2 (stereo not drawn) [Example 4, (7-{5-[(2,6-dichlorophenoxy)methyl]-1H-1,2,3-triazol-1-yl}-6,7,8,9-tetrahydropyrido[1,2-α]indol-10-yl)acetic acid] | 5 to 10
O=C(O)Cc1c2n(c3c(F)cccc13)C[C@H](n1nncc1Cc1ccc(F)cc1)CC2 [Example 8.1, {(7R)-4-Fluoro-7-[5-(4-fluorobenzyl)-1H-[1,2,3]triazol-1-yl]-6,7,8,9-tetrahydropyrido[1,2-a]-indol-10-yl}-acetic acid] | ≤ 5
O=C(O)Cc1c2n(c3ccccc13)CC(n1cc(-c3ccc(F)cc3)nn1)CC2 (stereo not drawn) [Example 10, {7-[4-(4-Fluoro-phenyl)-[1,2,3]triazol-1-yl]-6,7,8,9-tetrahydropyrido[1,2-α]indol-10-yl}-acetic acid] | 10 to 50
CS(=O)(=O)NCCCCc1cn(C2CCc3c(CC(=O)O)c4ccccc4n3C2)nn1 (stereo not drawn) [Example 11, {7-[4-(4-Methanesulfonylamino-butyl)-[1,2,3]triazol-1-yl]-6,7,8,9-tetrahydropyrido[1,2-α]indol-10-yl}-acetic acid] | > 100
CC(C)C(O)c1cn(C2CCc3c(CC(=O)O)c4ccccc4n3C2)nn1 (stereo not drawn) [Example 12, {7-[4-(1-Hydroxy-2-methyl-propyl)-[1,2,3]triazol-1-yl]-6,7,8,9-tetrahydropyrido[1,2-α]indol-10-yl}-acetic acid] | > 100
CC(O)(c1ccccc1)c1cn(C2CCc3c(CC(=O)O)c4ccccc4n3C2)nn1 (stereo not drawn) [Example 13, {7-[4-(1-Hydroxy-1-phenyl-ethyl)-[1,2,3]triazol-1-yl]-6,7,8,9-tetrahydropyrido[1,2-α]indol-10-yl}-acetic acid] | > 100
O=C(O)Cc1c2n(c3ccccc13)CC(n1cc(COc3ccccc3)nn1)CC2 (stereo not drawn) [Example 14, [7-(4-Phenoxymethyl-[1,2,3]triazol-1-yl)-6,7,8,9-tetrahydropyrido[1,2-α]indol-10-yl]-acetic acid] | 10 to 50
CS(=O)(=O)c1ccc(-c2cn(C3CCc4c(CC(=O)O)c5ccccc5n4C3)nn2)cc1 (stereo not drawn) [Example 15, {7-[4-(4-Methanesulfonyl-phenyl)-[1,2,3]triazol-1-yl]-6,7,8,9-tetrahydropyrido[1,2-α]indol-10-yl}-acetic acid] | > 100
CC(C)(O)c1ccc(-c2cn(C3CCc4c(CC(=O)O)c5ccccc5n4C3)nn2)cc1 (stereo not drawn) [Example 16, (7-{4-[4-(1-Hydroxy-1-methyl-ethyl)-phenyl]-[1,2,3]triazol-1-yl}-6,7,8,9-tetrahydropyrido[1,2-α]indol-10-yl)-acetic acid] | > 100
O=C(O)Cc1c2n(c3ccccc13)CC(n1cc(-c3ccc(C(F)(F)F)cc3)nn1)CC2 (stereo not drawn) [Example 17, {7-[4-(4-Trifluoromethyl-phenyl)-[1,2,3]triazol-1-yl]-6,7,8,9-tetrahydropyrido[1,2-α]indol-10-yl}acetic acid] | > 100
O=C(O)Cc1c2n(c3ccccc13)CC(n1cc(-c3cccc4ccccc34)nn1)CC2 (stereo not drawn) [Example 18, [7-(4-Naphthalen-1-yl-[1,2,3]triazol-1-yl)-6,7,8,9-tetrahydropyrido[1,2-α]indol-10-yl]-acetic acid] | > 100
CN(C)c1ccc(-c2cn(C3CCc4c(CC(=O)O)c5ccccc5n4C3)nn2)cc1 (stereo not drawn) [Example 19, {7-[4-(4-Dimethylamino-phenyl)-[1,2,3]triazol-1-yl]-6,7,8,9-tetrahydropyrido[1,2-α]indol-10-yl}-acetic acid] | > 100
O=C(O)Cc1c2n(c3ccccc13)CC(n1nncc1-c1ccc(F)cc1)CC2 (stereo not drawn) [Example 20, {7-[5-(4-Fluoro-phenyl)-[1,2,3]triazol-1-yl]-6,7,8,9-tetrahydropyrido[1,2-α]indol-10-yl}-acetic acid] | > 100
O=C(O)Cc1c2n(c3ccccc13)CC(n1nncc1COc1ccccc1)CC2 (stereo not drawn) [Example 21, [7-(5-Phenoxymethyl-[1,2,3]triazol-1-yl)-6,7,8,9-tetrahydropyrido[1,2-α]indol-10-yl]-acetic acid] | 10 to 50
O=C(O)Cc1c2n(c3ccccc13)CC(n1nncc1C(O)c1ccc(Br)cc1)CC2 (stereo not drawn) [Example 22, (7-{5-[(4-Bromo-phenyl)-hydroxy-methyl]-[1,2,3]triazol-1-yl}-6,7,8,9-tetrahydropyrido[1,2-α]indol-10-yl)-acetic acid] | 10 to 50
CC(C)(C)OC(=O)N1CCC(c2cnnn2C2CCc3c(CC(=O)O)c4ccccc4n3C2)CC1 (stereo not drawn) [Example 23, 4-[3-(10-Carboxymethyl-6,7,8,9-tetrahydropyrido[1,2-α]indol-7-yl)-3H-[1,2,3]triazol-4-yl]-piperidine-1-carboxylic acid tert-butyl ester] | > 100
O=C(O)Cc1c2n(c3ccccc13)CC(n1nncc1C1CCCCC1)CC2 (stereo not drawn) [Example 24, [7-(5-Cyclohexyl-[1,2,3]triazol-1-yl)-6,7,8,9-tetrahydropyrido[1,2-α]indol-10-yl]-acetic acid] | > 100
O=C(O)Cc1c2n(c3ccccc13)CC(n1nncc1C1(O)c3ccccc3-c3ccccc31)CC2 (stereo not drawn) [Example 25, {7-[5-(9-Hydroxy-9H-fluoren-9-yl)-[1,2,3]triazol-1-yl]-6,7,8,9-tetrahydropyrido[1,2-α]indol-10-yl}-acetic acid] | 10 to 50
C=C(c1ccc(F)cc1)c1cnnn1C1CCc2c(CC(=O)O)c3ccccc3n2C1 (stereo not drawn) [Example 26, (7-{5-[1-(4-Fluoro-phenyl)-vinyl]-[1,2,3]triazol-1-yl}-6,7,8,9-tetrahydropyrido[1,2-α]indol-10-yl)-acetic acid] | ≤ 5
O=C(O)Cc1c2n(c3ccccc13)C[C@H](n1nncc1C(c1ccc(F)cc1)c1ccc(F)cc1)CC2 [Example 30, ((R)-7-{5-[Bis-(4-fluoro-phenyl)-methyl]-[1,2,3]triazol-1-yl}-6,7,8,9-tetrahydropyrido[1,2-α]indol-10-yl)-acetic acid] | ≤ 5
O=C(O)Cc1c2n(c3ccccc13)CC(n1nncc1C(O)(c1ccccc1)C(F)(F)F)CC2 (stereo not drawn) [Example 35, {7-[5-(2,2,2-trifluoro-1-hydroxy-1-phenyl-ethyl)-1H-1,2,3-triazol-1-yl]-6,7,8,9-tetrahydropyrido[1,2-a]indol-10-yl}acetic acid] | 10 to 50
